pIC50: −log10 of the molar value.
System: 521955-158-R2-J5-PDC complex spheroid growth, % test/control
Experiment: Anticancer human tumor 521955-158-R2-J5-PDC patient-derived pancreatic carcinoma cell line growth inhibition [Asc]
Conditions: for pIC50: curve of first compound; for viability, T/C: stronger effect = lower value
How it was run: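 Complex solid-tumor spheroids incorporating human endothelial and mesenchymal stem cells received single agents or combinations over half-log dilution ranges anchored to clinical Cmax.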

[1] = second compound 0.03 µM, first compound 0.00316 µM
[2] = second compound 0.03 µM, first compound 0.01 µM
[3] = second compound 0.03 µM, first compound 0.0316 µM
[4] = second compound 0.03 µM, first compound 0.1 µM
[5] = second compound 0.0949 µM, first compound 0.00316 µM
[6] = second compound 0.0949 µM, first compound 0.01 µM
[7] = second compound 0.0949 µM, first compound 0.0316 µM
[8] = second compound 0.0949 µM, first compound 0.1 µM
[9] = second compound 0.3 µM, first compound 0.00316 µM
[10] = second compound 0.3 µM, first compound 0.01 µM
[11] = second compound 0.3 µM, first compound 0.0316 µM
[12] = second compound 0.3 µM, first compound 0.1 µM
[13] = second compound 0.949 µM, first compound 0.00316 µM
[14] = second compound 0.949 µM, first compound 0.01 µM
[15] = second compound 0.949 µM, first compound 0.0316 µM
[16] = second compound 0.949 µM, first compound 0.1 µM
[17] = second compound 3 µM, first compound 0.00316 µM
[18] = second compound 3 µM, first compound 0.01 µM
[19] = second compound 3 µM, first compound 0.0316 µM
[20] = second compound 3 µM, first compound 0.1 µM
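Further: spheroids exposed to agents for 7 days before readout.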
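Wherever viability, T/C is given: 100% = DMSO vehicle control viability.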

Molecule `COc1c(OCCCN2CCOCC2)ccc2c3n(c(=NC(=O)c4cnc(N)nc4)nc12)CCN3` + CCN1C(C(=O)NC23CCC(C(=O)O)(CC2)CC3)C(c2cccc(Cl)c2F)C2(C(=O)Nc3cc(Cl)ccc32)C12CCCCC2 has a pIC50 (second compound 0.03 µM) of 8.34, a pIC50 (second compound 0.0949 µM) of 8.04 and a pIC50 (second compound 0.3 µM) of 8.15. It also gave a pIC50 (second compound 0.949 µM) of 7.97, a pIC50 (second compound 3 µM) of 7.52 and a viability, T/C [1] of 53.5%. For the same molecule, the viability, T/C [2] was 43.2%, the viability, T/C [3] was 34.5% and the viability, T/C [4] was 30.3%. For the same molecule, the viability, T/C (second compound 0.03 µM, first compound 0.316 µM) was 24.3%, the viability, T/C (second compound 0.03 µM, first compound 1 µM) was 17.3% and the viability, T/C [5] was 61.1%. The viability, T/C [6] was 47.8%, the viability, T/C [7] was 38.2% and the viability, T/C [8] was 30.3%. For the same molecule, the viability, T/C (second compound 0.0949 µM, first compound 0.316 µM) was 19%, the viability, T/C (second compound 0.0949 µM, first compound 1 µM) was 15.2% and the viability, T/C [9] was 60.2%. The viability, T/C [10] was 40.4%, the viability, T/C [11] was 43.3% and the viability, T/C [12] was 31%. For the same molecule, the viability, T/C (second compound 0.3 µM, first compound 0.316 µM) was 24.2%, the viability, T/C (second compound 0.3 µM, first compound 1 µM) was 23.1% and the viability, T/C [13] was 71.6%. It also gave a viability, T/C [14] of 44.7%, a viability, T/C [15] of 40.5% and a viability, T/C [16] of 31.5%. It also gave a viability, T/C (second compound 0.949 µM, first compound 0.316 µM) of 23.2%, a viability, T/C (second compound 0.949 µM, first compound 1 µM) of 15.8% and a viability, T/C [17] of 93.6%. The viability, T/C [18] was 74.2%, the viability, T/C [19] was 43.5% and the viability, T/C [20] was 37.3%. For the same molecule, the viability, T/C (second compound 3 µM, first compound 0.316 µM) was 22.5% and the viability, T/C (second compound 3 µM, first compound 1 µM) was 16.7%.
With `NC(=O)C(=Cn1cnc(-c2cc(C(F)(F)F)cc(C(F)(F)F)c2)n1)c1cncnc1` + CCN1C(C(=O)NC23CCC(C(=O)O)(CC2)CC3)C(c2cccc(Cl)c2F)C2(C(=O)Nc3cc(Cl)ccc32)C12CCCCC2 the pIC50 (second compound 0.03 µM) was 8.20, the pIC50 (second compound 0.0949 µM) was 8.55 and the pIC50 (second compound 0.3 µM) was 8.25. For the same molecule, the pIC50 (second compound 0.949 µM) was 8.17, the pIC50 (second compound 3 µM) was 8.00 and the viability, T/C (second compound 0.03 µM, first compound 0.000949 µM) was 57.6%. For the same molecule, the viability, T/C (second compound 0.03 µM, first compound 0.003 µM) was 62.8%, the viability, T/C (second compound 0.03 µM, first compound 0.00949 µM) was 44.4% and the viability, T/C (second compound 0.03 µM, first compound 0.03 µM) was 34.9%. For the same molecule, the viability, T/C (second compound 0.03 µM, first compound 0.0949 µM) was 30.7%, the viability, T/C (second compound 0.03 µM, first compound 0.3 µM) was 38.5% and the viability, T/C (second compound 0.0949 µM, first compound 0.000949 µM) was 103%. For the same molecule, the viability, T/C (second compound 0.0949 µM, first compound 0.003 µM) was 45.5%, the viability, T/C (second compound 0.0949 µM, first compound 0.00949 µM) was 47.2% and the viability, T/C (second compound 0.0949 µM, first compound 0.03 µM) was 41.7%. It also gave a viability, T/C (second compound 0.0949 µM, first compound 0.0949 µM) of 33%, a viability, T/C (second compound 0.0949 µM, first compound 0.3 µM) of 36.2% and a viability, T/C (second compound 0.3 µM, first compound 0.000949 µM) of 76.5%. For the same molecule, the viability, T/C (second compound 0.3 µM, first compound 0.003 µM) was 51.3%, the viability, T/C (second compound 0.3 µM, first compound 0.00949 µM) was 50.5% and the viability, T/C (second compound 0.3 µM, first compound 0.03 µM) was 38.3%. For the same molecule, the viability, T/C (second compound 0.3 µM, first compound 0.0949 µM) was 33.6%, the viability, T/C (second compound 0.3 µM, first compound 0.3 µM) was 32.8% and the viability, T/C (second compound 0.949 µM, first compound 0.000949 µM) was 94.2%. It also gave a viability, T/C (second compound 0.949 µM, first compound 0.003 µM) of 58.1%, a viability, T/C (second compound 0.949 µM, first compound 0.00949 µM) of 47.9% and a viability, T/C (second compound 0.949 µM, first compound 0.03 µM) of 42%. The viability, T/C (second compound 0.949 µM, first compound 0.0949 µM) was 35.7%, the viability, T/C (second compound 0.949 µM, first compound 0.3 µM) was 43.8% and the viability, T/C (second compound 3 µM, first compound 0.000949 µM) was 109%. For the same molecule, the viability, T/C (second compound 3 µM, first compound 0.003 µM) was 75.6%, the viability, T/C (second compound 3 µM, first compound 0.00949 µM) was 53.1% and the viability, T/C (second compound 3 µM, first compound 0.03 µM) was 34.5%. It also gave a viability, T/C (second compound 3 µM, first compound 0.0949 µM) of 49.9% and a viability, T/C (second compound 3 µM, first compound 0.3 µM) of 45.4%.
`NC1CCC(NC2CC2c2ccccc2)CC1` (stereo not given) + CCN1C(C(=O)NC23CCC(C(=O)O)(CC2)CC3)C(c2cccc(Cl)c2F)C2(C(=O)Nc3cc(Cl)ccc32)C12CCCCC2 showed a pIC50 (second compound 0.03 µM) of less than 7.00, a pIC50 (second compound 0.0949 µM) of less than 7.00 and a pIC50 (second compound 0.3 µM) of less than 7.00. It also gave a pIC50 (second compound 0.949 µM) of less than 7.00, a pIC50 (second compound 3 µM) of less than 7.00 and a viability, T/C (second compound 0.03 µM, first compound 0.000316 µM) of 59%. The viability, T/C (second compound 0.03 µM, first compound 0.001 µM) was 52.7%, the viability, T/C [1] was 64.8% and the viability, T/C [2] was 59.2%. The viability, T/C [3] was 57.4%, the viability, T/C [4] was 46.1% and the viability, T/C (second compound 0.0949 µM, first compound 0.000316 µM) was 55.9%. It also gave a viability, T/C (second compound 0.0949 µM, first compound 0.001 µM) of 55.1%, a viability, T/C [5] of 69.4% and a viability, T/C [6] of 59.3%. The viability, T/C [7] was 65%, the viability, T/C [8] was 65.8% and the viability, T/C (second compound 0.3 µM, first compound 0.000316 µM) was 58.5%. For the same molecule, the viability, T/C (second compound 0.3 µM, first compound 0.001 µM) was 44.1%, the viability, T/C [9] was 58.8% and the viability, T/C [10] was 65.8%. It also gave a viability, T/C [11] of 48.8%, a viability, T/C [12] of 71.4% and a viability, T/C (second compound 0.949 µM, first compound 0.000316 µM) of 58.5%. It also gave a viability, T/C (second compound 0.949 µM, first compound 0.001 µM) of 66.8%, a viability, T/C [13] of 74% and a viability, T/C [14] of 67.5%. It also gave a viability, T/C [15] of 62.5%, a viability, T/C [16] of 77.4% and a viability, T/C (second compound 3 µM, first compound 0.000316 µM) of 84.7%. The viability, T/C (second compound 3 µM, first compound 0.001 µM) was 109%, the viability, T/C [17] was 83.1% and the viability, T/C [18] was 113%. For the same molecule, the viability, T/C [19] was 92.8% and the viability, T/C [20] was 91.7%.

Source: PubChem BioAssay AID1963430 (Molecular Pharmacology Branch, DTP, NCI, 2024)
